From patent US20010018060A1, “Use of particular fatty substances which make it possible to modify the physicochemical properties of the skin and/or the mucous membranes as agents preventing or reducing the adhesion of microorganisms to the latter” (priority 2000, published 2001)

Assays:
[1] = test system: Staphylococcus aureus adhering to reconstructed epidermis; assay type: cell-based; settings: for Reduction of log/control: reduction of decimal logarithm of mean number of viable Staphylococcus aureus adhering to reconstructed epidermis (EPISKIN) vs water, 25 mg fatty substance, 2 hours at 37° C., then 24 hours with bacteria
Procedure: Moreover, these fatty substances are such that the decimal logarithm of the mean number of viable bacteria adhering to reconstructed epidermis, after a test consisting in bringing the said epidermis into contact with the test compound for 2 hours at 37° C., is at least 0.3, preferably 0.5 and more preferably 1, less than that obtained by a test carried out with water under the same conditions.
The reconstructed epidermis used in the test indicated above is reconstructed human epidermis, equivalent to human skin, sold by EPISKIN.
The antiadhesion test corresponds to the protocol below:
Before bacterial adhesion, the reconstructed epidermis is brought into contact for 2 hours with 25 mg of the fatty substance to be tested at 37° C. 1 ml of bacterial suspension of Staphylococcus aureus at a concentration of 10^7 microorganisms/ml in Tryptone salt is then added thereto. After incubating for 24 hours at 37° C., the bacterial suspension is emptied and five rinsings are carried out with 1 ml of sterile distilled water. The epidermis, detached from its support, is then ground with the aid of a food processor in 18 ml of Tryptone salt. A decimal dilution is carried out on this suspension in Tryptone salt, and 1 ml of the dilution is then inoculated into 15 ml of Trypticase Soy agar and the medium is incubated for 24 hours at 37° C. The adherent and viable cells are then counted.
This antiadhesion test makes it possible to evaluate the efficacy of molecules alone or of finished products.
(§1) The figures presented opposite the fatty substance correspond to the reduction of the decimal logarithm of the mean number of viable Staphylococcus aureus adhering to reconstructed epidermis after treatment with the fatty substance under the conditions defined by the preceding test compared with the decimal logarithm of the mean number of viable Staphylococcus aureus adhering to reconstructed epidermis after treatment with water under the same conditions.
as §1, with “value” for “reduction”

[2] = interfacial tension of the fatty substance; assay type: physicochemical

Row | Molecule | Reduction of log/control [1] | Log measured ([1]; decimal logarithm of viable adhering Staphylococcus aureus compared with water control, the printed number is an increase /control, same test conditions) | Interfacial tension [2]
1 | CCCCCCCCCCCCCCCCCCCCCC(=O)OCC(O)COCC(CC)CCCC (centres unmarked) [Octoxyglyceryl behenate] | 2.59 |  | 
2 | CCCCCCCCCCCCCCCC(=O)OC(C)C [Isopropyl palmitate] | 1.07 |  | 
3 | CCCCCCCCCCCCCCCC(=O)OCC(O)COCC(CC)CCCC (centres unmarked) [Octoxyglyceryl palmitate] | 1.85 |  | 
4 | Tartrate of branched C12-C13 dialcohols | 2.31 |  | 
5 | CCCCCCCCOC(=O)CCCCC(=O)OCCCCCCCC [Dioctyl adipate] | 0.9 |  | 
6 | CC(C)CCCC(C)CCCC(C)CCCCC(C)CCCC(C)CCCC(C)C (centres unmarked) [Squalane, reference compound] |  | 0.27/control | 46 mN/m
7 | Di(C12-13 alkyl) malate | 3.68 |  | 
